# Source: the supplement of paper PMC10307832
# Tests used:
# Assay in all cases: relative viability (nuclei count vs DMSO), 5 days (fraction); higher = more cells survive
# [1] = compound: Cc1ccc(C(=O)Nc2ccc(CN3CCN(C)CC3)c(C(F)(F)F)c2)cc1C#Cc1cnc2cccnn12 [Ponatinib] + COc1cccc2cc(-c3nc([C@H]4CC[C@H](C(=O)O)CC4)n4ncnc(N)c34)[nH]c12 [OSI-027] (partner 0.5 µM)
# Summary of the method: (§1)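 Five library-drug doses in √10 steps were combined with a fixed anchor-drug dose, or a single drug was given alone, by pin tool to lung cancer cell lines in 1536-well plates the day after seeding. Nuclei were stained and counted after 5 days. Relative viability is the nuclei count in treated wells over that in vehicle wells, taken as the median of duplicate plates.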
# [2] = compound: Cc1ccc(Nc2nccc(N(C)c3ccc4c(C)n(C)nc4c3)n2)cc1S(N)(=O)=O [Pazopanib] + CCNC(=O)c1noc(-c2cc(C(C)C)c(O)cc2O)c1-c1ccc(CN2CCOCC2)cc1 [Luminespib] (partner 0.01 µM)
# Summary of the method: as §1
# [3] = compound: Cc1ccc(Nc2nccc(N(C)c3ccc4c(C)n(C)nc4c3)n2)cc1S(N)(=O)=O [Pazopanib] + CS(=O)(=O)CCNCc1ccc(-c2ccc3ncnc(Nc4ccc(OCc5cccc(F)c5)c(Cl)c4)c3c2)o1 [Lapatinib] (partner 2 µM)
# Summary of the method: as §1
# [4] = compound: Cc1ccc(Nc2nccc(N(C)c3ccc4c(C)n(C)nc4c3)n2)cc1S(N)(=O)=O [Pazopanib] + NC(=O)Nc1cc(-c2cccc(F)c2)sc1C(=O)N[C@H]1CCCNC1 [AZD7762] (partner 0.2 µM)
# Summary of the method: as §1
Cell Line,relative viability ([1]; first compound 0.002 µM),relative viability ([1]; first compound 0.006325 µM),relative viability ([1]; first compound 0.06325 µM),relative viability ([1]; first compound 0.2 µM),relative viability ([2]; first compound 0.01 µM),relative viability ([2]; first compound 0.03162 µM),relative viability ([2]; first compound 0.1 µM),relative viability ([2]; first compound 0.3162 µM),relative viability ([2]; first compound 1 µM),relative viability ([3]; first compound 0.01 µM),relative viability ([3]; first compound 0.03162 µM),relative viability ([3]; first compound 0.1 µM),relative viability ([3]; first compound 0.3162 µM),relative viability ([3]; first compound 1 µM),relative viability ([4]; first compound 0.01 µM),relative viability ([4]; first compound 0.03162 µM),relative viability ([4]; first compound 0.1 µM),relative viability ([4]; first compound 0.3162 µM),relative viability ([4]; first compound 1 µM)
201T,0.622,0.724,0.796,0.711,0.996,1.1,1.07,1.06,1.08,0.971,0.998,1.04,1.04,1.06,0.534,0.511,0.667,0.685,0.615
A549,–,–,–,–,–,–,–,–,–,0.967,0.977,1.07,1.1,0.914,–,–,–,–,–
A-427,0.49,0.429,0.396,0.215,1.08,1.18,0.786,1.02,1.19,0.992,1.07,1,1.06,1.22,0.864,0.786,0.825,0.784,0.716
ABC-1,0.394,0.513,0.47,0.393,0.627,0.672,–,0.41,0.961,–,1.32,1.37,0.91,1.27,0.797,0.757,–,–,0.804
BEN,0.3,0.305,0.312,0.332,–,0.328,0.246,0.364,0.352,–,0.574,0.721,0.808,0.774,0.592,0.75,0.607,0.775,0.786
CAL-12T,0.571,0.523,0.568,0.418,0.434,0.321,0.974,0.426,0.783,0.483,0.669,0.69,0.733,0.816,0.594,0.579,0.527,0.568,0.652
COR-L23,0.707,0.73,0.766,0.604,0.644,0.791,0.72,0.654,0.785,0.966,1.07,1.06,1.2,1,–,–,–,–,–
COR-L 105,0.638,0.807,1.03,0.744,1.06,0.539,0.765,0.909,0.787,0.342,0.414,0.386,0.341,0.401,–,–,–,–,–
Calu-6,–,–,–,–,–,–,–,–,–,1.07,1.14,1.21,0.999,0.96,–,–,–,–,–
ChaGo-K-1,0.465,0.594,0.571,0.493,0.632,0.595,0.586,0.492,0.574,–,–,–,–,–,0.859,0.859,0.971,0.82,0.865
EBC-1,–,–,–,–,–,–,–,–,–,0.184,0.251,0.232,0.247,0.232,–,–,–,–,–
EKVX,0.66,0.729,0.829,0.706,0.987,0.763,0.728,0.873,0.857,0.183,0.213,0.231,0.344,0.297,0.705,0.599,0.755,0.654,0.636
EMC-BAC-2,0.368,0.376,0.39,0.368,–,1.2,1.16,1.14,1.25,0.735,0.921,0.915,0.904,0.991,–,1.14,1.09,1.14,1.2
EPLC-272H,0.283,0.278,0.299,0.268,–,0.281,0.366,0.344,0.52,0.638,0.797,1.01,1.14,0.802,–,0.227,0.238,0.132,0.217
H3255,0.666,0.566,0.613,0.526,0.854,0.883,0.869,0.8,0.982,0.203,0.26,0.248,0.285,0.256,0.897,0.906,0.847,0.883,0.913
HARA,0.435,0.497,0.476,0.393,0.548,0.704,1.09,0.76,0.839,0.582,0.746,0.58,0.725,0.695,0.428,0.303,0.255,0.35,0.349
HCC-15,0.643,0.677,0.843,0.599,0.146,0.242,0.366,0.2,0.498,0.841,0.789,0.907,0.89,1,1.3,1.15,1.31,1.22,1.15
HCC-44,0.482,0.413,0.402,0.408,1.11,1.07,1.07,1.04,1.12,0.999,1.01,0.962,1.01,1.03,1.07,0.979,0.979,1.01,0.982
HCC-78,0.332,0.418,0.366,0.528,–,–,–,–,–,0.361,0.658,0.458,0.622,0.924,–,0.654,0.615,0.658,0.604
HCC-366,0.821,0.984,1,0.655,–,–,–,–,–,1.09,1.03,1.09,1.15,1.03,0.321,0.202,0.314,0.276,0.238
